The text below walks through data of US9206457B2, “Utilization of pharmacological chaperones to improve manufacturing and purification of biologics” (Amicus Therapeutics, Inc., priority 2009, dated 2015).

Series [1] has as its target T1, α-Gal A (Homo sapiens, UniProt P06280).
T1 construct: expressed in transfected cells; host or cells: COS-7
T1 sequence (P06280 32-429): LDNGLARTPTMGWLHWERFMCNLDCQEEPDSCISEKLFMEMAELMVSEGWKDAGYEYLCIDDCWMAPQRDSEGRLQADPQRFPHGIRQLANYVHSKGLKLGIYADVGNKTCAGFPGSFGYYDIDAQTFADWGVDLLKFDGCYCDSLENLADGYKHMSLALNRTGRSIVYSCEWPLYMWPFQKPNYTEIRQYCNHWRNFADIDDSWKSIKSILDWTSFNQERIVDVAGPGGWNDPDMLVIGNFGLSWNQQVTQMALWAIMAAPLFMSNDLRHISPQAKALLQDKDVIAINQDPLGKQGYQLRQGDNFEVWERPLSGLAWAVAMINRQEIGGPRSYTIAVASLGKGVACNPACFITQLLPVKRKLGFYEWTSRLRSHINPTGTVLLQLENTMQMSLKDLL
In words: α-Gal A activity in conditioned media of COS-7 cells transfected with GLA plasmid, 72 h. To be noted: 72 hours expression. The series is classed as cell-based. As to the method:
COS-7 cells were transiently transfected with empty vector or a plasmid coding for the α-Gal A gene (GLA). […] After 72-hours of protein expression, the conditioned media from each transfection was harvested, and the level of α-Gal A activity was assessed using the substrate […].

For a further series, the target named is T2, GCase (Homo sapiens, UniProt P04062).
T2 construct: expressed in transfected cells; host or cells: COS-7
T2 sequence (P04062 40-536): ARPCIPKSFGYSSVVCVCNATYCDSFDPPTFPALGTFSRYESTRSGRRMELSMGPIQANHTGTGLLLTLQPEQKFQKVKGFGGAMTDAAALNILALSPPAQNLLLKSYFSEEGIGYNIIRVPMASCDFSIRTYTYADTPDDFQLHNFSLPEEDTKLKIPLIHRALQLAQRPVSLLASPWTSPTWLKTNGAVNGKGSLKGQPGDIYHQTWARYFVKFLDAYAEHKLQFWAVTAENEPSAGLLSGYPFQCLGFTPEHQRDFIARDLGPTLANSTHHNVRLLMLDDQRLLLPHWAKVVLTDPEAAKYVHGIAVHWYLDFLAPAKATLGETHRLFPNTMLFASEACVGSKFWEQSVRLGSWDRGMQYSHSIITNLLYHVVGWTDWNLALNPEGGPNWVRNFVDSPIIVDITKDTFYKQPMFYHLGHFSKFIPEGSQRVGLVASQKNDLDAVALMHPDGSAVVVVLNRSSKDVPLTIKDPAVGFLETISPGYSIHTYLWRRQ
In words: GCase activity in conditioned media of COS-7 cells transfected with human GBA1 plasmid, 72 h. The series is classed as cell-based. The settings on record: 72 hours expression.

Series [2] has as its target T1, α-Gal A. The experiment in a line: α-Gal A activity in conditioned media of transiently transfected COS-7 cells, 48 h, concanavalin A capture. Type of series: cell-based. The settings on record: 100 μM chaperone, 48 hours expression.
The target of series [3] is T1, α-Gal A. In words: SYPRO Orange α-Gal A denaturation over time at 37° C. The series is classed as binding. The settings on record: 50 μM DGJ added at 3 or 6 hours, pH 7.4, 37° C.
In the next series the target is T3, α-Gal A (Fabrazyme®) (Homo sapiens, UniProt P06280).
T3 construct: purchased
T3 sequence (P06280 32-429): T1 sequence (P06280 32-429)
The experiment in a line: SYPRO Orange thermal stability assay (heat denaturation) of α-Gal A. Type of series: binding. To be noted: 10 and 100 μM DGJ, pH 7.4.

Series [4] concerns the target T4, recombinant human GAA (Myozyme®) (Homo sapiens, UniProt P10253).
T4 construct: purchased Genzyme Corp
The experiment in a line: Residual GAA enzyme activity (4-MU-α-glucose) on extended incubation at 37° C. The series is classed as biochemical. The settings on record: 50 μM 1-DNJ, pH 7.4, 37° C., over 24 hours. As to the method: FIG. 2A depicts the effects of 1-DNJ-HCl on recombinant human GAA (rhGAA; Myozyme®, Genzyme Corp.) activity at neutral pH (7.4) or lysosomal pH (5.2) at 37° C. GAA activity was evaluated to assess the ability of an ASSC to prolong the activity of rhGAA over time. Myozyme (45 nM) was incubated in pH 7.4 or pH 5.2 buffer with or without 50 μM 1-DNJ at 37° C. over 24 hours. Samples were assayed for GAA enzyme activity using 4-MU-α-glucose at 0, 3, 6 and 24 hours and the residual GAA activity was expressed as % of initial activity.
Residual GAA activity was determined for four formulations:
Activity was measured, based on the % of initial activity (t=0) over 24 hours. Samples were assayed for GAA enzyme activity based on the hydrolysis of the fluorogenic substrate 4-MU-α-glucose at 0, 3, 6 and 24 hours. The GAA activity was expressed as % of initial activity, i.e. residual activity.

For series [5], the target named is T4, recombinant human GAA (Myozyme®). The experiment in a line: SYPRO Orange GAA unfolding over time at 37° C. The settings on record: 50 μM DNJ added at 3 or 6 hours, pH 7.4, 37° C. Type of series: binding.
Series [6] shares this target. In words: SYPRO Orange thermal stability assay (heat denaturation) of GAA. Type of series: binding. An excerpt:
The thermal stability assay utilizes heat to induce protein denaturation, which is monitored using a SYPRO Orange dye that fluoresces upon binding to hydrophobic amino acids (which are not exposed in a folded protein).
FIG. 3 depicts the results of a thermal stability assay that utilizes heat to induce protein denaturation, which is monitored using a SYPRO Orange dye that fluoresces upon binding to hydrophobic amino acids (which are not exposed in a folded protein). […] The experiment was conducted at pH 7.4.
Denaturation is monitored using a SYPRO Orange dye that fluoresces upon binding to hydrophobic amino acids (which are not exposed in a folded protein).
The thermal stability was performed at pH 7.4 for two formulations, which corresponds to the pH of the ER.
A thermal stability experiment as generally described in Example 1 was performed on four compositions: […]

A further series concerns the target T5, α-Glucosidase (GAA) (Homo sapiens, UniProt P10253).
T5 construct: expressed in transfected cells; host or cells: COS-7
The experiment in a line: GAA activity in conditioned media of COS-7 cells transfected with human GAA plasmid, 72 h. To be noted: 72 hours expression. Type of series: cell-based.

Series [7] addresses T6, GCase (Cerezyme®) (Homo sapiens, UniProt P04062, R534H).
T6 construct: purchased Genzyme Corp
T6 sequence (P04062 40-536 R534H): T2 sequence (P04062 40-536) with R495H
In words: GCase activity over time in neutral or acidic buffer at 37° C. (4-MUG). The series is classed as biochemical. The settings on record: 1 μM IFG, 10 nM GCase, pH 7.4, 37° C.

In series [8] the target is T7, acid β-glucosidase (GCase; Cerezyme®) (Homo sapiens, UniProt P04062, R534H).
T7 construct: purchased Genzyme Corp
T7 sequence (P04062 40-536 R534H): T2 sequence (P04062 40-536) with R495H
The experiment in a line: SYPRO Orange GCase unfolding over time at 37° C. Type of series: binding. As to the method:
FIG. 5 depicts a SYPRO Orange thermal stability experiment to monitor the unfolding of acid β-glucosidase (GCase; Cerezyme®). GCase (2 μM) was incubated in pH 7.4 or pH 5.2 buffer with or without 10 μM IFG at 37° C. and protein unfolding was monitored every hour over 24 hours.
FIG. 9 depicts a SYPRO Orange thermal stability experiment to monitor the unfolding of acid β-glucosidase (GCase; Cerezyme®). GCase was incubated in pH 7.4 or pH 5.2 buffer with or without 10 μM or 100 μM IFG at 37° C., and protein unfolding was monitored every hour over 24 hours.
FIG. 15 depicts that addition of 50 μM IFG at 3 or 6 hours after incubation of GCase (Cerezyme®) in neutral (pH 7.4) buffer at 37° C. prevents further denaturation of the enzyme as measured by SYPRO dye fluorescence.
In this thermal stability experiment, the concentration of IFG was 10 μM in formulation (3).
In this thermal stability experiment, the concentration of IFG was 0, 10 μM, or 100 μM as described above.
The stability of α-Gal A, α-Glucosidase (GAA), and GCase (Cerezyme®) at 37° C. in neutral (pH 7.4) buffer was measured using the SYPRO Orange for 3, 6 or 24 hours.

Series [9] deals with T7, acid β-glucosidase (GCase; Cerezyme®). In words: SYPRO Orange thermal stability assay (heat denaturation) of GCase. Type of series: binding. As to the method: FIG. 4 depicts the results of a thermal stability assay that utilizes heat to induce protein denaturation, which is monitored using a SYPRO Orange dye that fluoresces upon binding to hydrophobic amino acids (which are not exposed in a folded protein). Isofagomine increases acid β-glucosidase thermostability as evident by increases in melting temperature in a dose-dependent manner. The experiment was conducted at pH 7.4.
FIG. 8 depicts the stability of recombinant human GCase (Cerazyme®, Genzyme Corp.) at neutral pH (7.4) or acidic pH (5.2) in the presence or absence of 10 μM of IFG as determined in a thermal stability assay. The thermal stability assay utilizes heat to induce protein denaturation, which is monitored using a SYPRO Orange dye that fluoresces upon binding to hydrophobic amino acids (which are not exposed in a folded protein).
A thermal stability experiment as generally described in Example 1 was performed on three compositions of GCase (Cerezyme®):
A thermal stability experiment as generally described in Examples 1 and 4 was performed on three compositions of GCase (Cerezyme®):
Protein denaturation was monitored using SYPRO Orange dye which fluoresces when bound to exposed hydrophobic amino acids.

For series [10], the target named is T6, GCase (Cerezyme®). In words: GCase activity in human plasma at 37° C. (4-MUG). The settings on record: IFG 3 μM, 30 μM, 100 μM, over 4 hours. The series is classed as in vitro ADME. As to the method: FIG. 10 depicts the effects of IFG on recombinant human GCase (GCase; Cerezyme®, Genzyme Corp.) activity in human plasma at 37° C. GCase activity was evaluated to assess the ability of an ASSC to prolong the activity of GCase in human plasma over time. Cerezyme (0.5 μM) was incubated in human plasma with increasing concentrations of IFG (3 μM, 30 μM, or 100 μM) at 37° C. over 4 hours. Samples were assayed for GCase enzyme activity using 4-MU-β-glucose at 0.25, 0.5, 1, 2 and 4 hours and the residual GCase activity was expressed as % of initial activity.
The activity of GCase (0.5 μM; Cerazyme®) at 37° C. in human plasma was assessed for increasing concentrations of IFG (3 μM, 30 μM, and 100 μM) as a function time using the substrate 4-MUG.

For another series, the target named is T8, acid β-glucosidase (Homo sapiens, UniProt P04062).
T8 sequence (P04062 40-536): T2 sequence (P04062 40-536)
To be noted: 100 μM chaperone, 48 hours expression, COS-7.

Changes are numbered by the printed parent chain.

In the case of `O[C@H]1[C@H](O)CNC[C@@H]1C(F)F` [AT3375], the “α-Gal A activity from conditioned media” value at α-Gal A [1] is on record as “increased slightly”. Also, the “GCase activity recovered from conditioned media” value on GCase was “increased the activity”.
As to `OC[C@H]1NC[C@H](O)[C@@H](O)[C@H]1O` [DGJ, 1-deoxygalactonorjirimycin], the “α-Gal A activity from conditioned media” value at α-Gal A [1] is listed as “increased slightly”; at α-Gal A [2], “increased the activities”. The “Further denaturation of α-Gal A” value on α-Gal A [3] was “prevented further denaturation”. For the same compound, the “α-Gal A thermal stability (melting temperature)” value at α-Gal A (Fabrazyme®) is given as “increases α-Gal A thermal stability in a dose-dependent manner”.
With `OC[C@H]1NC[C@H](O)[C@@H](O)[C@@H]1O` [DNJ, 1-deoxynorjirimycin], the “Effect on loss of GAA enzyme activity” value in series [4] was “ameliorates the loss of GAA enzyme activity”. In series [5], the “Further denaturation of GAA” value is “prevented further denaturation”. Moreover, the “GAA thermal stability (heat required to denature)” value in [6] (100 μM DNJ, pH 7.4, versus formulation without ASSC) was “required significantly more heat to denature”. In addition, the “GAA thermostability (melting temperature)” value in series [6] (1, 10, 100 μM 1-DNJ-HCl, pH 7.4, dose-dependent) is reported as “increases GAA thermostability”. The “GAA activity recovered from conditioned media” value at α-Glucosidase (GAA) is reported as “little effect”.
In the case of `OC[C@H]1CNC[C@@H](O)[C@@H]1O` [IFG, (3R,4R,5R)-5-(hydroxymethyl)-3,4-piperidinediol], the “Stability of GCase activity over time” value on GCase (Cerezyme®) [7] was “significantly increases the stability”. Also, the GCase unfolding entry in series [8] (10 μM IFG, pH 7.4, 37° C., over 24 hours (Example 5)) is “prevented GCase unfolding”. In addition, in [8] (10 μM and 100 μM IFG, neutral pH, 37° C. (Example 9)), the “Stability of GCase (unfolding over time)” value is reported as “significantly increases the stability”. Besides, the “Further denaturation of GCase” value in series [8] (50 μM IFG added at 3 or 6 hours, pH 7.4, 37° C.) is on record as “prevented further denaturation”. In addition, the “Stability of recombinant human GCase upon thermal challenge” value in series [9] (10 μM IFG, pH 7.4 (Example 8)) is recorded as “significantly increases stability”. For the same compound, in series [9] (10 and 100 μM IFG, pH 7.4), the “GCase thermal stability (melting temperature)” value is reported as “increases GCase thermal stability in a dose-dependent manner”. In addition, at GCase (Cerezyme®) [10], the “Stability of GCase activity in human plasma” value was “significantly increases the stability of GCase and prevents enzyme inactivation”. At acid β-glucosidase, the “Acid β-glucosidase activity from conditioned media” value is given as “increased the activities”. Moreover, the “GCase activity recovered from conditioned media” value at GCase is recorded as “increased the activity”.
Consider “Myozyme: recombinant human GAA (Myozyme®, Genzyme Corp.)”, for which the “Stability of Myozyme at lysosomal versus neutral pH (thermal stability assay)” value in series [6] (pH 5.2 versus pH 7.4, no chaperone) is “much more stable at lysosomal pH (5.2) than at neutral pH (7.4)”.
